From ChEMBL document CHEMBL2331399, “Purification and characterization of carbonic anhydrase from sheep kidney and effects of sulfonamides on enzyme activity” (Bioorg Med Chem, 2013) come the findings set out here.

The term Ki denotes a dissociation constant, usually derived from enzyme kinetics or from competition with a known ligand.

This assay is described as follows: Inhibition of sheep kidney esterase activity of carbonic anhydrase using 4-nitrophenylacetate as substrate after 3 mins by spectrophotometric analysis. Further details: species or system Ovis aries.

In the case of `NS(=O)(=O)c1ccc2ccccc2c1`, the inhibition constant (Ki) turned out to be 2.59 µM. In the case of `NS(=O)(=O)c1ccccc1Br`, affinity was put at a Ki of 5.87 µM. This Ki is about 2.3-fold higher than that of the compound before. As for `NS(=O)(=O)c1ccccc1` [BENZENESULFONAMIDE], the figure is 8.66 µM. The same measure for `Cc1ccc(S(N)(=O)=O)cc1` [P-TOLUENESULFONAMIDE]: 1.35 µM. The same measure for `Nc1ccc(S(N)(=O)=O)cc1` [SULFANILAMIDE]: 69.3 µM.
